Measurements from patent US6613794B2, “Hydroxyindoles, their use as inhibitors of phosphodiesterase 4 and processes for their preparation” (Arzneimittelwerk Dresden GmbH, priority 1998, dated 2003).

Assays:
[1] = system: LPS-induced pulmonary neutrophil infiltration; test: LPS-induced pulmonary neutrophil infiltration in ferrets; format: in vivo; details: for inhibition of LPS-induced neutrophilia: powder with lactose, 2 hours before LPS
Protocol: The inhibition of lipopolysaccharide (LSP)-induced pulmonary neutrophil infiltration by the substance is investigated in an in vivo test on male ferrets (0.6-2 kg). The experimental animals are anaesthetized with pentobarbital sodium (40 mg/kg of body weight i.p.), placed individually into a closed nebulization box of 5 l capacity and exposed to an ultrasonically nebulized aerosol of 0.01% strength LPS (lipopolysaccharide) solution (additionally 0.1% hydroxylamine in PBS) for 10 minutes. The aerosol is generated by a nebulizer driven with compressed air (0.2 Mpa). Control animals are treated with an aerosol of physiological saline solution. The animals are observed during the entire process and removed from the nebulization box after admission of fresh air. On inhalation, nebulized LPS immediately induces inflammation of the airways, which is characterized by a massive infiltration of neutrophilic granulocytes into the lungs of the experimental animals. The neutrophilia achieves its maximum 4 to 6 hours after LPS exposure. In order to be able to measure the number of infiltrated neutrophilic granulocytes, the animals are anaesthetized with an overdose of ethylurethane (1.5 g/kg of body weight i.p.) 6 hours after LPS provocation and a bronchoalveolar lavage (BAL) is carried out using 2×10 ml of physiological saline solution. The number of cells in the pooled original BAL fluid (100 μl) are determined using the automatic cell-counting apparatus sold by Bayer Diagnostic under the trade designation Technicon HIE and the different leucocytes per μl are differentiated. In each test, 2 control groups (nebulization with physiological saline solution or with LPS solution) are included. Substances having anti-inflammatory activity, particularly those which affect TNFα release or the function of the neutrophilic granulocytes, inhibit the infiltration of leucocytes. The inhibition of infiltration is determined by the comparison of the number of infiltrated neutrophils in untreated experimental animals (with and without LPS provocation).
For intrapulmonary administration, the trachea of the animals is opened under anaesthesia with 40 mg/kg i.p. of pentobarbital sodium, 3% strength, 1.3 ml/kg, a 7 cm-long PVC catheter is tied in and the test substances are administered intrapulmonarily in powder form (mixed with lactose to 20 mg/kg) by means of a syringe 2 hours before LPS provocation. The intrapulmonary administration of Example 1 in doses of 1, 3 and 10 mg/kg inhibits LPS-induced neutrophilia in a dose-dependent manner (43%, 65% and 100%).

[2] = system: LPS-induced TNFα release in human blood; test: LPS-induced TNFα release in human blood; format: cell-based; details: human blood diluted 1:5, LPS 10 μg/ml, 24 hours
Excerpt: The stimulation of isolated leucocytes to cytokine release can take place in various ways. Lipopolysaccharides (LPSs) are a stimulus suitable for the investigation of TNFα release. LPS is a constituent of the bacterial cell walls and is released by killing the bacteria (antibiotics or immune system). LPS particularly stimulates the activity of the phagocytizing leucocytes (tissue macrophages, granulocytes, monocytes) and causes the infiltration of leucocytes from the blood stream into the affected tissue. A cytokine important for these mechanisms is TNFα, which is secreted in large amounts by the affected cells (the monocytes and macrophages are the main source) and initiates and maintains inflammation alongside other mediators.
For the investigation of the effect on LPS-induced TNFα release, human blood was obtained from various donors (inhibition of coagulation by means of citrate) and diluted 1:5 with RPMI 1640 cell culture medium. The test substances were added to the samples in various concentrations before the LPS challenge. […] After incubation of the test batches for 24 hours at 37° C. and under 5% CO2 in an incubator, the diluted blood was centrifuged and the TNFα concentration in the cell-free supernatant was measured by means of ELISA.

[3] = system: LPS-induced pulmonary neutrophilia; test: LPS-induced pulmonary neutrophilia in domestic pigs; format: in vivo; details: intrapulmonary administration of 10 mg/animal
Protocol: Pulmonary neutrophilia can be induced with LPS in domestic pigs in a manner similar to that in the ferret. The animals are anaesthetized with pentobarbital 10 mg/kg i.v., and intubated. Using a bronchoscope, a partial bronchoalveolar lavage is carried out in order to determine the proportion of neutrophilic granulocytes under physiological conditions. The test substance is then administered and the animals inhale an ultrasonically nebulized aerosol of 0.03% strength LPS (lipopolysaccharide) solution (additionally 0.1% hydroxylamine in PBS) through the tracheal tube for 20 min. The inhaled LPS induces a reactive inflammation of the airways and neutrophilic granulocytes infiltrate on a huge scale. The neutrophilia achieves its maximum 4 to 6 hours after LPS exposure. After 6 hours, the bronchoalveolar lavage is repeated and the increase in the neutrophil count is determined arithmetically.

## O=C(Nc1c(Cl)cncc1Cl)C(=O)c1cn(Cc2c(F)cccc2F)c2ccc(O)cc12
other
  melting point: 266 to 268 °C

## COc1ccc(Cn2cc(C(=O)Nc3c(Cl)cncc3Cl)c3cc(O)ccc32)cc1
other
  melting point: 239 to 241 °C

## COc1ccc(C(=O)Nc2c(Cl)cncc2Cl)cc1OC1CCCC1 [RPR-73401, reference compound]
[1]; 1 mg/kg i.p.
  inhibition of neutrophilia in the BAL: 49%

## O=C(Nc1c(Cl)cncc1Cl)C(=O)c1cn(Cc2ccc(F)cc2)c2cc(O)ccc12
other
  melting point: 212 to 213 °C

## CC(C)n1cc(C(=O)C(=O)Nc2c(Cl)cncc2Cl)c2cc(O)ccc21
other
  melting point: 245 to 247 °C

## COc1ccc([C@]2(C#N)CC[C@@H](C(=O)O)CC2)cc1OC1CCCC1 [SB 207499, reference compound]
[2]
  IC50: 7 µM

## O=C(Nc1c(Cl)cc(OC(F)(F)F)cc1Cl)C(=O)c1cn(Cc2ccc(F)cc2)c2ccc(O)cc12
other
  melting point: 176 to 178 °C

## O=C(Nc1c(Cl)cncc1Cl)C(=O)c1cn(CC2CCCC2)c2ccc(O)cc12
other
  melting point: 246 to 248 °C

## O=C(Nc1c(Cl)cccc1Cl)C(=O)c1cn(Cc2ccc(F)cc2)c2ccc(O)cc12
other
  melting point: 216 to 218 °C

## CCCn1cc(C(=O)C(=O)Nc2c(Cl)cncc2Cl)c2cc(O)ccc21
other
  melting point: 280 to 282 °C

## O=C(Nc1c(Cl)cc(C(F)(F)F)cc1Cl)C(=O)c1cn(Cc2ccc(F)cc2)c2ccc(O)cc12
other
  melting point: 199 to 201 °C

## O=C(Nc1c(Cl)cncc1Cl)C(=O)c1cn(Cc2ccc(F)cc2)c2ccc(O)cc12 [Example 1, N-(3,5-Dichloropyridin-4-yl)-2-[1-(4-fluorobenzyl)-5-hydroxyindol-3-yl]-2-oxoacetamide]
[2]
  IC50: 0.8 µM
[1]; 1 mg/kg i.p.
  inhibition of neutrophilia in the BAL: 18%
[1]; 1 mg/kg intrapulmonary
  inhibition of LPS-induced neutrophilia: 43%
[1]; 3 mg/kg i.p.
  inhibition of neutrophilia in the BAL: 64%
[1]; 3 mg/kg intrapulmonary
  inhibition of LPS-induced neutrophilia: 65%
[1]; 10 mg/kg i.p.
  inhibition of neutrophilia in the BAL: 78%
[1]; 10 mg/kg intrapulmonary
  inhibition of LPS-induced neutrophilia: 100%
[1]; i.p., 2 hours before LPS provocation
  ID50, inhibition of LPS-induced neutrophilia in BAL: 2.4 mg/kg
[1]; intrapulmonary administration (printed i.palm.)
  ID50, inhibition of LPS-induced neutrophilia: 1.65 mg/kg
[3]
  inhibition of LPS-induced pulmonary neutrophilia: 51%
